Assay results published in the supplement of paper PMC11061612.

Assays:
A375 (Melanoma) = assay: combination Emax (second highest fraction inhibited in the dose matrix, 72 h); higher = more inhibition; extreme values may be limits of the assay
In short: (§1)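 Bliss excess equals the observed combination effect minus the expected value EA + EB − EA·EB, where EA and EB are the effects of each agent alone. Combination Emax is the second-highest inhibition within the matrix. Inhibition was scaled from CellTiter-Glo 2.0 luminescence, with 0 set by vehicle wells and 1 by blank wells, after 72 hours of two-drug dosing of cells plated in 1536-well plates.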

[1] = test system: ATN-1 (T-Lymphoblastic Leukemia); assay: as above
In short: as §1

C32 (Melanoma) = assay: as above
In short: as §1

DK-MG (Glioblastoma) = assay: as above
In short: as §1

[2] = test system: Daudi (Burkitt's Lymphoma); assay: as above
In short: as §1

[3] = test system: GRANTA-519 (B-Cell Non-Hodgkin's Lymphoma); assay: as above
In short: as §1

[4] = test system: HT-1197 (Bladder Carcinoma); assay: as above
In short: as §1

[5] = test system: JJN-3 (Plasma Cell Myeloma); assay: as above
In short: as §1

[6] = test system: KNS-62 (Squamous Cell Lung Carcinoma); assay: as above
In short: as §1

[7] = test system: NCI-H1944 (Lung Adenocarcinoma); assay: as above
In short: as §1

[8] = test system: NCI-H1975 (Lung Adenocarcinoma); assay: as above
In short: as §1

[9] = test system: NCI-H2009 (Lung Adenocarcinoma); assay: as above
In short: as §1

[10] = test system: OCI-M1 (Acute Myeloid Leukemia); assay: as above
In short: as §1

[11] = test system: RPMI-8402 (T-Lymphoblastic Leukemia); assay: as above
In short: as §1

[12] = test system: SNU-1 (Gastric Carcinoma); assay: as above
In short: as §1

[13] = test system: TK (B-Cell Non-Hodgkin's Lymphoma); assay: as above
In short: as §1

RVH-421 (Melanoma) [14] = assay: Bliss excess, mean over the matrix (fraction); higher = more synergy
In short: as §1

RVH-421 (Melanoma) [15] = assay: combination Emax (second highest fraction inhibited in the dose matrix, 72 h); higher = more inhibition; extreme values may be limits of the assay
In short: as §1

Structure (SMILES)	combination Emax (A375 (Melanoma))	combination Emax [1]	combination Emax (C32 (Melanoma))	combination Emax (DK-MG (Glioblastoma))	combination Emax [2]	combination Emax [3]	combination Emax [4]	combination Emax [5]	combination Emax [6]	combination Emax [7]	combination Emax [8]	combination Emax [9]	combination Emax [10]	combination Emax [11]	combination Emax [12]	combination Emax [13]	Bliss excess (RVH-421 (Melanoma) [14])	combination Emax (RVH-421 (Melanoma) [15])
NC1(C(=O)N[C@@H](CCO)c2ccc(Cl)cc2)CCN(c2ncnc3[nH]ccc23)CC1 [Capivasertib] + CC(C)n1c(=O)n(C)c2cnc3cc(F)c(-c4ccc(OCCCN5CCCCC5)nc4)cc3c21 [AZD1390] (first compound max 10 µM, 7x7, partner max 0.3 µM)	0.228	0.778	0.353	0.454	0.338	0.196	0.391	0.28	0.547	0.429	0.604	0.372	0.287	0.623	0.229	0.162		
CCc1c2c(nc3ccc(O)cc13)-c1cc3c(c(=O)n1C2)COC(=O)[C@]3(O)CC [SN-38] + O=C(c1cc(Cc2n[nH]c(=O)c3ccccc23)ccc1F)N1CCN(C(=O)C2CC2)CC1 [Olaparib] (first compound max 0.3 µM, 7x7, partner max 10 µM)	0.949	1	0.664	0.259	0.979		0.35	0.688	0.905	0.634	0.545	0.442		1	0.926		-0.0041	0.265
CS(=O)(=O)CCNCc1ccc(-c2ccc3ncnc(Nc4ccc(OCc5cccc(F)c5)c(Cl)c4)c3c2)o1 [Lapatinib] + C[C@@H](Oc1cc(-c2cnn(C3CCNCC3)c2)cnc1N)c1c(Cl)ccc(F)c1Cl [Crizotinib] (first compound max 10 µM, 7x7, partner max 10 µM)	0.86	0.988	0.7	0.925	0.945	0.751	0.536	0.902	0.856	0.958	0.631	0.732	0.996	0.995	0.857	0.701		
NC1(C(=O)N[C@@H](CCO)c2ccc(Cl)cc2)CCN(c2ncnc3[nH]ccc23)CC1 [Capivasertib] + COc1nnc2ccc(N3CCC(c4ccc(OCCN5CCN(C)C(=O)[C@H]5C)cc4)CC3)nn12 [AZD5153] (first compound max 10 µM, 7x7, partner max 1 µM)	0.469	0.654	0.687	0.611	0.793	0.317	0.759	0.921	0.809	0.842	0.652	0.498	1	0.991	0.652	0.387		
CC(=O)c1c(C)c2cnc(Nc3ccc(N4CCNCC4)cn3)nc2n(C2CCCC2)c1=O [Palbociclib] + Cc1c2c(nn1C)CSCc1cc(n(C)n1)CSc1cc(c3ccccc3c1)OCCCc1c(C(=O)O)n(C)c3c-2c(Cl)ccc13 [AZD5991] (first compound max 10 µM, 7x7, partner max 1 µM)	0.356	0.954	0.254	0.366	0.571	0.295	0.247	0.992	0.329	0.633	0.321	0.179	0.457	0.974	0.805	0.266		
COc1nnc2ccc(N3CCC(c4ccc(OCCN5CCN(C)C(=O)[C@H]5C)cc4)CC3)nn12 [AZD5153] + Cc1c2c(nn1C)CSCc1cc(n(C)n1)CSc1cc(c3ccccc3c1)OCCCc1c(C(=O)O)n(C)c3c-2c(Cl)ccc13 [AZD5991] (first compound max 1 µM, 7x7, partner max 1 µM)	0.606	0.999	0.947	0.633	0.916	0.314	0.966	1	0.503	0.594	0.724	0.379	1	1	0.976	0.677		
NC1(C(=O)N[C@@H](CCO)c2ccc(Cl)cc2)CCN(c2ncnc3[nH]ccc23)CC1 [Capivasertib] + C[C@@H]1COCCN1C2=NC(=NC(=C2)C3(CC3)[S@](=N)(=O)C)C4=C5C=CNC5=NC=C4 [AZD6738] (first compound max 10 µM, 7x7, partner max 10 µM)	0.723	0.965	0.631	0.494	0.709	0.892	0.491	0.603	0.738	0.974	0.669	0.453	0.985	0.997	0.718	0.871		
